Assay results as given in PMC8216263 (Pharmaceutical Biology, 2021).

Columns and labels:
[1] = Stability of GA and PCA in quality control samples (biological matrix); assay type: physicochemical, human; conditions: for Long-term Stability: 3 months at −80 °C; for Post-preparative Stability: 24 h at 4 °C, n = 3; for Bench-top Stability: 24 h at 25 °C
Experimental: The analytical method’s validation was conducted according to the FDA’s Bio-analytical Method Validation guidance (USFDA [2018]). Blank samples were obtained from six subjects for selectivity. The calibration curves were assessed by plotting the peak response ratio against the nominal concentrations of GA (1.00, 2.00, 10.0, 40.0, 100, 200, 320 and 400 μg/L) and PCA (0.50, 1.00, 5.00, 20.0, 50.0, 100, 160 and 200 μg/L). The low, medium and high QC concentrations were 3.00, 60.0 and 300 μg/L and 1.50, 30.0 and 150 μg/L for GA and PCA, respectively. Intra- and inter-day accuracy and precision were measured using six replicates of QCs in three separate batches. QCs’ acceptance criteria were ± 15% SD of nominal values, and the precision was ± 15% RSD, except for LLOQ ± 20% SD. The matrix effect and recovery were investigated using six lots of blank matrix from individual sources. Stability was assessed by spiking low and high QCs in blank samples using four conditions: for post-preparative stability (24 h at 4 °C), bench-top stability (24 h at 25 °C), long-term stability (3 months at −80 °C) and freeze-thaw stability (for three cycles).

BCRP = biological target: T1, BCRP (Homo sapiens, UniProt Q9UNQ0); experiment: Inhibition of BCRP-mediated lucifer yellow efflux in MDCK-BCRP cells; assay type: cell-based; conditions: for inhibitory effect on efflux of BCRP-mediated lucifer yellow: GA 50–5000 μg/L, PCA 10–1000 μg/L
T1 sequence (Q9UNQ0 1-655): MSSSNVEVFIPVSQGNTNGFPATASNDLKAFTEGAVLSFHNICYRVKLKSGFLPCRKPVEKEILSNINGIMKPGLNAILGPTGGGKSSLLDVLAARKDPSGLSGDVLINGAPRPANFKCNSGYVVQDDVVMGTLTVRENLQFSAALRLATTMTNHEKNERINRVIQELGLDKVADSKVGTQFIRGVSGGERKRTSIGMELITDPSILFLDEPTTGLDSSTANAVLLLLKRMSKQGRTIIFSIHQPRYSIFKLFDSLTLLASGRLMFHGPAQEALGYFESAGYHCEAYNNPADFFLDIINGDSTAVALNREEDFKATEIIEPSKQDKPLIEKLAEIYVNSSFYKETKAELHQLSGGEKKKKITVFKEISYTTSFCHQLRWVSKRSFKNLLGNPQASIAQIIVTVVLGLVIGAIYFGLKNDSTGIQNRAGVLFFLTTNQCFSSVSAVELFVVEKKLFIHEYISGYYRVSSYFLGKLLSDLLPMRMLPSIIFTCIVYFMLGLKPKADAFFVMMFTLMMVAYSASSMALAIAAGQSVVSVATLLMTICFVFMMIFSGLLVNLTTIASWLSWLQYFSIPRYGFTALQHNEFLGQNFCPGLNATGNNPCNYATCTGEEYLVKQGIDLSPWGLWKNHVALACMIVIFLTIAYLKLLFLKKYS
From the text: (§1) The human multidrug resistance protein (MDR)1-transfected Madin–Darby Canine Kidney (MDCK) cells, human breast cancer resistance protein (BCRP)-transfected MDCK cells, human organic anion transporter (OAT)1-transfected MDCK cells, OAT3-transfected second portion of proximal tubule (S2) cells, human organic cation transporter (OCT)2-transfected S2 cells, human organic anion transporting polypeptide (OATP)1B1-transfected human embryonic kidney 293 (HEK293) cells and their MOCK cells were kindly provided by Japan Fuji Biomedical Co., Ltd. (Osaka, Japan). Cells were cultured in DMEM supplemented with 10% FBS, 100 units/mL penicillin and 100 […]. All cells were incubated in a humidified atmosphere of 95% air and 5% CO2 at 37 °C. A solution of 0.25% trypsin-EDTA was used to detach the cells from flasks. Cell culture flasks, 24-well cell culture plates, and transwell polycarbonate inserts (12 mm diameter, 0.4 μm pore size) were purchased from Corning Co-star Corp. (Bedford, MA).
Inhibitory effects of GA and PCA on efflux transporters MDR1 and BCRP were investigated with the fluorogenic substrates rhodamine 123 (10 µM) and lucifer yellow (10 µM), respectively. The positive control inhibitors of MDR1 and BCRP were verapamil (10 µM) and cyclosporine (20 µM), respectively. The efflux experiments were adapted from previously reported methods with minor modifications (Reznicek et al. [2017]). Briefly, MDCK-MDR1, MDCK-BCRP and MDCK-mock cells were trypsinized and uniformly suspended in the designated volume of HBSS to provide a density of 4.0 × 10^5 cells/mL. For 0.5 mL of cell suspension and 1.5 mL of HBSS buffer medium were added in the apical and basolateral compartments of 12-well Transwell plates. After cultivation for 7 d, cells were washed twice and equilibrated for 30 min at 37 °C with the pre-warmed HBSS buffer. […] Fluorescence was measured at 485 nm (excitation) and 546 nm (emission) for rhodamine 123, and 425 nm (excitation) and 528 nm (emission) for Lucifer yellow. […]

MDR1 = biological target: T2, MDR1 (Homo sapiens, UniProt P08183); experiment: Inhibition of MDR1-mediated rhodamine 123 efflux in MDCK-MDR1 cells; assay type: cell-based; conditions: for inhibitory effect on efflux of MDR1-mediated rhodamine 123: GA 50–5000 μg/L, PCA 10–1000 μg/L
T2 construct: host or cells: MDCK
From the text: as §1
Inhibitory effects of GA and PCA on efflux transporters MDR1 and BCRP were investigated with the fluorogenic substrates rhodamine 123 (10 µM) and lucifer yellow (10 µM), respectively. The positive control inhibitors of MDR1 and BCRP were verapamil (10 µM) and cyclosporine (20 µM), respectively. The efflux experiments were adapted from previously reported methods with minor modifications (Reznicek et al. [2017]). Briefly, MDCK-MDR1, MDCK-BCRP and MDCK-mock cells were trypsinized and uniformly suspended in the designated volume of HBSS to provide a density of 4.0 × 10^5 cells/mL. For 0.5 mL of cell suspension and 1.5 mL of HBSS buffer medium were added in the apical and basolateral compartments of 12-well Transwell plates. After cultivation for 7 d, cells were washed twice and equilibrated for 30 min at 37 °C with the pre-warmed HBSS buffer. The integrity of cell monolayers was verified by the determination of the value of transepithelial electrical resistance (TEER) using a Millipore Millicell-ERS system (Millipore Corporation, Bedford, MA) (200–300 Ω × cm^2). An aliquot of 1.5 mL transport buffer containing probe substrates was added in the basolateral compartment to initiate the efflux in the presence or absence of GA (50, 150, 500, 1500 and 5000 μg/L), PCA (10, 30, 100, 300 and 1000 μg/L) or positive inhibitors at 37 °C. An aliquot of 0.5 mL empty transport buffer was placed in the apical compartment. After 2 h of co-incubation, 100 μL of HBSS in the apical compartment was transferred to 96-well plates. Fluorescence was measured at 485 nm (excitation) and 546 nm (emission) for rhodamine 123, and 425 nm (excitation) and 528 nm (emission) for Lucifer yellow. The final concentration of DMSO in the assay was less than 0.1%. All experiments were performed in triplicate.

[2] = rats, ref Ma et al. 2016, cited from earlier work
[3] = high QC (GA 300.0, PCA 150.0 μg/L)
[4] = low QC (GA 3.00, PCA 1.50 μg/L)

T2 sequence (P08183 whole entry): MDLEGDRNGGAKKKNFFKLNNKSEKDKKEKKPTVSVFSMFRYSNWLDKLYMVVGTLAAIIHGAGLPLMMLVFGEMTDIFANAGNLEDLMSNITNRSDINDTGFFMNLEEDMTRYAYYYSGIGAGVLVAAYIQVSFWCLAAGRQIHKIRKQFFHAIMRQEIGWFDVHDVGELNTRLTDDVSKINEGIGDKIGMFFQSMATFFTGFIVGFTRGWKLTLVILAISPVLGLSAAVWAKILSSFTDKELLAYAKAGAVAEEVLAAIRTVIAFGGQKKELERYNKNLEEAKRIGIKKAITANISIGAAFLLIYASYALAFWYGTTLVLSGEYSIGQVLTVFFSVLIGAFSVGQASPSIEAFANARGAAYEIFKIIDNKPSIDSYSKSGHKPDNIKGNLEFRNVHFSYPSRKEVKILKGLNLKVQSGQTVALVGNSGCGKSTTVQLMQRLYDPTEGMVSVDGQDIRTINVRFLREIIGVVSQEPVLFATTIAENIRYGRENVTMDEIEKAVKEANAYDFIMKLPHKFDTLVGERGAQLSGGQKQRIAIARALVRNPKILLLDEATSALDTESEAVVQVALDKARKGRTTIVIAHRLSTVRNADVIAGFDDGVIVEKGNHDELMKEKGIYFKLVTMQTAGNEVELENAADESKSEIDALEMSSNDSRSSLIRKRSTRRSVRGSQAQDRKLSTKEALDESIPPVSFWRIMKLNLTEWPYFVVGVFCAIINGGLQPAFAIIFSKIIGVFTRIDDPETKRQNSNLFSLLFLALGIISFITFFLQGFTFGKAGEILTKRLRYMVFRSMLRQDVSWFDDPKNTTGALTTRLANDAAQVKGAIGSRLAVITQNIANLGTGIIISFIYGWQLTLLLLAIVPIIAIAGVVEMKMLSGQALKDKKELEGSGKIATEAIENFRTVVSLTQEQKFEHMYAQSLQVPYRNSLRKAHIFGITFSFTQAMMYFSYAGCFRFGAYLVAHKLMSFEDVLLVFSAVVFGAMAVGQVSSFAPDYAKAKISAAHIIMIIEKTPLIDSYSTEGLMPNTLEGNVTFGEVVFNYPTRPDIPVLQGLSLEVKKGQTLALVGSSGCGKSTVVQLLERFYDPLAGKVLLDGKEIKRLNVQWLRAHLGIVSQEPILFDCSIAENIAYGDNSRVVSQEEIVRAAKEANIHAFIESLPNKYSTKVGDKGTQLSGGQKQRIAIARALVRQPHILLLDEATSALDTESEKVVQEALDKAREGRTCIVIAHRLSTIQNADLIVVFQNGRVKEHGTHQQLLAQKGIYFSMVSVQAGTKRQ

Row | Compound | Long-term Stability [1, 3] [%] | Long-term Stability [1, 4] [%] | Post-preparative Stability [1, 3] [%] | Post-preparative Stability [1, 4] [%] | Bench-top Stability [1, 3] [%] | Bench-top Stability [1, 4] [%] | Three freeze-thaw cycles Stability [1, 3] [%] | Three freeze-thaw cycles Stability [1, 4] [%] | inhibitory effect on efflux of BCRP-mediated lucifer yellow (BCRP) | inhibitory effect on efflux of MDR1-mediated rhodamine 123 (MDR1) | efflux of rhodamine 123 compared with the control (MDR1; relatively high concentrations) | concentration in rat kidney tissue [2] [ng/g] | efflux of lucifer yellow compared with the control (BCRP; relatively high concentrations) | activity at 2 h, 6.5 µM (MDR1; human, probe rhodamine 123 (10 µM), MDCK-MDR1 cells, PCA 1000 μg/L (6.5 µM), read-out: efflux of rhodamine 123, % of control) [%] | unchanged amount that survived the metabolism, % of the total intake ([2]; urinary excretion) [%]
1 | O=C(O)c1cc(O)c(O)c(O)c1 [GA, gallic acid] | 93.68 | 99.70 | 94.37 | 88.48 | 94.81 | 98.11 | 93.17 | 85.89 | no significant inhibitory effect | no significant inhibitory effect | significant increase | 1218 |  |  | 
2 | O=C(O)c1ccc(O)c(O)c1 [PCA, protocatechuic acid] | 93.67 | 99.04 | 96.93 | 90.60 | 95.44 | 97.69 | 94.22 | 87.22 | no significant inhibitory effect | no significant inhibitory effect |  |  | significant increase | ~190 | ~15.7
